Measurements reported in patent publication US20060069132A1, “Azolecarboxamide herbicides” (priority 2004, published 2006).
Where two headings read alike, the source gives them in different places.

Legend:
corn = assay: Test C pre-/postemergence herbicide test; type: in vivo, Zea mays
How it was run: (§1)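 Visual injury scores run from 0 (no effect) to 100 (complete control), assessed relative to untreated controls 12 to 14 days after treatment in the greenhouse. Chemicals were formulated in a non-phytotoxic solvent mixture with surfactant and applied to soil after planting or to emerged plants at the 1- to 4-leaf stage.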

large crabgrass [1] = assay: Test A pre-/postemergence herbicide test; type: in vivo, Digitaria sanguinalis; conditions: Digitaria sanguinalis, 240 h; for pest or weed control at 500 g/ha: 500 g ai/ha; for pest or weed control at 2000 g/ha: 2000 g ai/ha
How it was run: (§2)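 Pre: seeded sandy loam, directed soil spray, compound in non-phytotoxic solvent + surfactant. Post: 1–2-leaf plants (2–10 cm), sprayed to runoff. Greenhouse ~10 d; visual injury vs untreated, 0–100 scale.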

giant foxtail = assay: Test C pre-/postemergence herbicide test; type: in vivo, Setaria faberi
How it was run: as §1

cocklebur = assay: Test C pre-/postemergence herbicide test; type: in vivo, Xanthium strumarium
How it was run: as §1

large crabgrass [2] = assay: Test C pre-/postemergence herbicide test; type: in vivo, Digitaria sanguinalis
How it was run: as §1

kochia = assay: Test C pre-/postemergence herbicide test; type: in vivo, Kochia scoparia
How it was run: as §1

barnyardgrass = assay: Test A pre-/postemergence herbicide test; type: in vivo, Echinochloa crus-galli; conditions: Echinochloa crus-galli, 240 h; for pest or weed control at 500 g/ha: 500 g ai/ha; for pest or weed control at 2000 g/ha: 2000 g ai/ha
How it was run: as §2

bermudagrass = assay: Test C pre-/postemergence herbicide test; type: in vivo, Cynodon dactylon
How it was run: as §1

velvetleaf = assay: Test A pre-/postemergence herbicide test; type: in vivo, Abutilon theophrasti; conditions: Abutilon theophrasti, 240 h; for pest or weed control at 500 g/ha: 500 g ai/ha; for pest or weed control at 2000 g/ha: 2000 g ai/ha
How it was run: as §2

goosegrass = assay: Test C pre-/postemergence herbicide test; type: in vivo, Eleusine indica
How it was run: as §1

[3] = test system: common (oilseed) sunflower; assay: Test C pre-/postemergence herbicide test; type: in vivo, Helianthus annuus
How it was run: as §1

Surinam grass = assay: Test C pre-/postemergence herbicide test; type: in vivo, Urochloa decumbens
How it was run: as §1

[4] = Preemergence, 500 g ai/ha, scale 0 to 100, 0 no effect, 100 complete control
[5] = post-emergence, Postemergence, 0 to 100 scale, 0 no effect, 100 complete control, read-out: Plant response rating, Crabgrass, Large
[6] = post-emergence, Postemergence, 0 to 100 scale, 0 no effect, 100 complete control, read-out: Plant response rating, Barnyardgrass
[7] = post-emergence, Postemergence, 0 to 100 scale, 0 no effect, 100 complete control, read-out: Plant response rating, Velvetleaf

CCn1nc(C(C)(C)C)cc1C(=O)Nc1cc(C(=O)N(C)C)ccc1F [Compound 6, N-[5-[(dimethylamino)carbonyl]-2-fluorophenyl]-3-(1,1-dimethylethyl)-1-ethyl-1H-pyrazole-5-carboxamide]
85%: pest or weed control at 250 g/ha (giant foxtail; Setaria faberi, pre-emergence, 312 h, 250 g ai/ha, scale 0 to 100 (0 no effect, 100 complete control), visual, 12 to 14 days, read-out: Plant response rating, Foxtail, Giant)
0: Plant response rating (0 = no effect, 100 = complete control), Sunflower ([3]; 62 g ai/ha, preemergence)
80%: Corn plant response rating (crop injury, 0 = no effect, 100 = complete kill) at 250 g/ha (corn; Zea mays, pre-emergence, 312 h, 250 g ai/ha, scale 0 to 100 (0 no effect, 100 complete control), visual, 12 to 14 days) | pest or weed control at 500 g/ha (large crabgrass [1]; [5]) | pest or weed control at 125 g/ha (giant foxtail; Setaria faberi, pre-emergence, 312 h, 125 g ai/ha, scale 0-100, read-out: Plant response rating, Foxtail, Giant) | pest or weed control at 500 g/ha (barnyardgrass; [6])
100%: pest or weed control at 500 g/ha (large crabgrass [1]; pre-emergence, Preemergence, visual rating, 0 to 100 scale (0 no effect, 100 complete control), read-out: Crabgrass, Large plant response rating) | pest or weed control at 2000 g/ha (large crabgrass [1]; pre-emergence, Preemergence, 0 to 100 scale, 0 no effect, 100 complete control, read-out: Crabgrass, Large plant response rating) | pest or weed control at 125 g/ha (cocklebur; Xanthium strumarium, pre-emergence, 312 h, 125 g ai/ha, scale 0-100, read-out: Plant response rating, Cocklebur) | pest or weed control at 250 g/ha (cocklebur; Xanthium strumarium, pre-emergence, 312 h, 250 g ai/ha, scale 0 to 100 (0 no effect, 100 complete control), visual, 12 to 14 days, read-out: Plant response rating, Cocklebur) | pest or weed control at 500 g/ha (cocklebur; Xanthium strumarium, pre-emergence, 312 h, Preemergence, 500 g ai/ha, scale 0 to 100, 0 no effect, 100 complete control, read-out: Cocklebur plant response rating) | pest or weed control at 125 g/ha (kochia; Bassia scoparia, pre-emergence, 125 g ai/ha, scale 0-100, read-out: Plant response rating, Kochia) | pest or weed control at 250 g/ha (kochia; Bassia scoparia, pre-emergence, 250 g ai/ha, scale 0 to 100 (0 no effect, 100 complete control), visual, 12 to 14 days, read-out: Plant response rating, Kochia) | pest or weed control at 500 g/ha (barnyardgrass; pre-emergence, Preemergence, visual rating, 0 to 100 scale (0 no effect, 100 complete control), read-out: Barnyardgrass plant response rating) | pest or weed control at 2000 g/ha (barnyardgrass; pre-emergence, Preemergence, 0 to 100 scale, 0 no effect, 100 complete control, read-out: Barnyardgrass plant response rating) | pest or weed control at 500 g/ha (velvetleaf; pre-emergence, Preemergence, visual rating, 0 to 100 scale (0 no effect, 100 complete control), read-out: Velvetleaf plant response rating) | pest or weed control at 2000 g/ha (velvetleaf; pre-emergence, Preemergence, 0 to 100 scale, 0 no effect, 100 complete control, read-out: Velvetleaf plant response rating) | pest or weed control at 125 g/ha (goosegrass; Eleusine indica, pre-emergence, 312 h, 125 g ai/ha, scale 0-100, read-out: Plant response rating, Goosegrass) | pest or weed control at 250 g/ha (goosegrass; Eleusine indica, pre-emergence, 312 h, 250 g ai/ha, scale 0 to 100 (0 no effect, 100 complete control), visual, 12 to 14 days, read-out: Plant response rating, Goosegrass) | pest or weed control at 250 g/ha ([3]; Helianthus annuus, pre-emergence, 250 g ai/ha, scale 0 to 100 (0 no effect, 100 complete control), visual, 12 to 14 days, read-out: Plant response rating, Sunflower) | pest or weed control at 250 g/ha (Surinam grass; Urochloa decumbens, pre-emergence, 312 h, 250 g ai/ha, scale 0 to 100 (0 no effect, 100 complete control), visual, 12 to 14 days, read-out: Plant response rating, Surinam Grass)
95%: pest or weed control at 125 g/ha (large crabgrass [2]; Digitaria sanguinalis, pre-emergence, 312 h, 125 g ai/ha, scale 0-100, read-out: Plant response rating, Crabgrass, Large) | pest or weed control at 250 g/ha (large crabgrass [2]; Digitaria sanguinalis, pre-emergence, 312 h, 250 g ai/ha, scale 0 to 100 (0 no effect, 100 complete control), visual, 12 to 14 days, read-out: Plant response rating, Crabgrass, Large) | pest or weed control at 2000 g/ha (velvetleaf; [7])
60: Plant response rating (0 = no effect, 100 = complete control), Corn (corn; 62 g ai/ha, preemergence) | Plant response rating (0 = no effect, 100 = complete control), Foxtail, Giant (giant foxtail; 62 g ai/ha, preemergence) | Plant response rating (0 = no effect, 100 = complete control), Cocklebur (cocklebur; 62 g ai/ha, preemergence)
60%: Corn plant response rating (crop injury, 0 = no effect, 100 = complete kill) at 125 g/ha (corn; Zea mays, pre-emergence, 312 h, 125 g ai/ha, scale 0-100)
85: Plant response rating (0 = no effect, 100 = complete control), Goosegrass (goosegrass; 62 g ai/ha, preemergence) | Plant response rating (0 = no effect, 100 = complete control), Surinam Grass (Surinam grass; 62 g ai/ha, preemergence)
100: Foxtail, Giant plant response rating (giant foxtail; [4]) | Crabgrass, Large plant response rating (large crabgrass [2]; [4]) | Plant response rating (0 = no effect, 100 = complete control), Kochia (kochia; 62 g ai/ha, preemergence) | Kochia plant response rating (kochia; [4]) | Goosegrass plant response rating (goosegrass; [4]) | Sunflower plant response rating [3, 4] | Surinam Grass plant response rating (Surinam grass; [4])
80: Corn plant response rating (corn; [4]) | Plant response rating (0 = no effect, 100 = complete control), Bermudagrass (bermudagrass; 62 g ai/ha, preemergence)
75: Plant response rating (0 = no effect, 100 = complete control), Crabgrass, Large (large crabgrass [2]; 62 g ai/ha, preemergence)
90%: pest or weed control at 2000 g/ha (large crabgrass [1]; [5]) | pest or weed control at 2000 g/ha (barnyardgrass; [6]) | pest or weed control at 125 g/ha (bermudagrass; Cynodon dactylon, pre-emergence, 312 h, 125 g ai/ha, scale 0-100, read-out: Plant response rating, Bermudagrass) | pest or weed control at 250 g/ha (bermudagrass; Cynodon dactylon, pre-emergence, 312 h, 250 g ai/ha, scale 0 to 100 (0 no effect, 100 complete control), visual, 12 to 14 days, read-out: Plant response rating, Bermudagrass) | pest or weed control at 500 g/ha (bermudagrass; Cynodon dactylon, pre-emergence, 312 h, Preemergence, 500 g ai/ha, scale 0 to 100, 0 no effect, 100 complete control, read-out: Bermudagrass plant response rating) | pest or weed control at 500 g/ha (velvetleaf; [7])
